Data taken from publication PMC6934184, “Selective DNA-PKcs inhibition extends the therapeutic index of localized radiotherapy and chemotherapy” (The Journal of Clinical Investigation, 2019).

Target: T1, DDR2 (Homo sapiens, UniProt Q16832)
T1 construct: purchased Thermo Fisher Scientific (Life Technologies) SelectScreen
Test: SelectScreen LanthaScreen
Assay type: binding
Conditions: read-out: % displacement
Method in brief: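 Percent values come from Thermo SelectScreen profiling of NU5455, combining activity and binding assays. CSF1R was run in Z'LYTE format at Km app ATP, and CAMK1 in Adapta format with ATP listed at 10.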

T1 sequence (Q16832 22-855): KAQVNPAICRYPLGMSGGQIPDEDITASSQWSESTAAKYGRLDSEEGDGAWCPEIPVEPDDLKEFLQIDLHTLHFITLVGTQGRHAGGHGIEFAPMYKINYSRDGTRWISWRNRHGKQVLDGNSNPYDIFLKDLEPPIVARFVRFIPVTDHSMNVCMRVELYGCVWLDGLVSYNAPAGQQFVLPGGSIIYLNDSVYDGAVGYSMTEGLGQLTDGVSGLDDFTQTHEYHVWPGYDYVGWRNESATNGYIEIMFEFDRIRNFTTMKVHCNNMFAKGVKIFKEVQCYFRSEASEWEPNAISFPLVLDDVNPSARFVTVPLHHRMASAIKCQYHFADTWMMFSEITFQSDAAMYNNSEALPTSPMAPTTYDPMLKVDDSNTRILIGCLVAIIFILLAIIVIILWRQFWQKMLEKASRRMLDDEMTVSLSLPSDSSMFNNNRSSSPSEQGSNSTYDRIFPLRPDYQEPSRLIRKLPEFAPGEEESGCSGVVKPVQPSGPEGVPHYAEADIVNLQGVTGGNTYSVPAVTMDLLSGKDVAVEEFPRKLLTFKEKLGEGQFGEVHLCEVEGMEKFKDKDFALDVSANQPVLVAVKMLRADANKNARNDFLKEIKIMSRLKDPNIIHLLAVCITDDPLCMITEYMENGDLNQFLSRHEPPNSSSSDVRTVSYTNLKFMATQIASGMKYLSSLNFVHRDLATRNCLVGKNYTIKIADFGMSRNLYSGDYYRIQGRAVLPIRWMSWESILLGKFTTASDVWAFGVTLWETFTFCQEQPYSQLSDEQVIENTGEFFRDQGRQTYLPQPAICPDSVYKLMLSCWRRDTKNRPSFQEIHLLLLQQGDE

CN(C(=O)CN1CCOCC1)c1ccc2sc3c(-c4cccc5c(=O)cc(N6CC7CCC(C6)O7)oc45)cccc3c2c1 [NU5455]
inhibition at 1 µM: 0.7%
